Ends that are not written are not given here. * marks the point of attachment. Biotin = O=C1N[C@H]2[C@H](CS[C@H]2CCCCC(=O)*)N1
What was measured:
Assay type in all cases: binding, human
[1] = test system: antibodies in antisera from HIV-1 infected persons; test: ELISA with HIV-1 antibody-positive sera (biotinylated peptides on streptavidin- or avidin-coated plates, unbiotinylated peptides coated directly)
Description: (§1) Where peptides were to be coated directly, stock solutions of the peptides were diluted in sodium carbonate buffer, pH 9.6 and used to coat polystyrene microtiter plates at a peptide concentration of 2 to 5 micrograms per milliliter for 1 hour at 37° C.
(§2) In cases where biotinylated peptides were to be evaluated, plates were first coated with streptavidin in sodium carbonate buffer, pH 9.6 at a concentration of 3 micrograms per milliliter for 1 hour at 37° C. The plates were then washed to remove excess, unbound protein. A working solution of the biotinylated peptide at 1 microgram per milliliter in sodium carbonate buffer was then added to the wells of the microtiter plate and incubated for 1 hours at 37° C.
(§3) Once the plates had been coated with antigen, any remaining free binding sites on the plastic were blocked with casein. After washing, a dilution of the appropriate antisera, usually 1:100, was added to the wells of the plates and incubated for 1 hour at 37° C.
(§4) After washing to remove unbound material, specific antibody binding was detected by incubating the plates with goat anti-human immunoglobulin antibodies conjugated to the enzyme horseradish peroxidase. Following removal of unbound conjugate by washing, a solution containing H2O2 and 3,3′,5,5′-tetramethylbenzidine was added.
(§5) Reactions were stopped after a suitable interval by addition of sulfuric acid. […] Absorbance measurements were made at a wavelength of 450 nanometers and all data are expressed as an optical density value at this wavelength.
Experiments were performed to evaluate antibody recognition of short, 10 amino acid-long, N-acetylated peptides corresponding to other contained within the transmembrane proteins of HIV-1 and HIV-2. […] The peptides used for the comparison were as follows:
Antibody binding to these peptides was compared to antibody binding to the unibiotinylated peptides which were coated directly onto microtiter plates.
In order to evaluate antibody recognition of these two peptides, the peptides were bound individually to streptavidin-coated microtiter plates and tested using a panel of antisera from HIV-1 seropositive donors.
(§6) To determine how well biotinylated peptides would function in a mixture when bound to streptavidin- or avidin-coated plates, two mixtures were made of the N-terminally biotinylated versions of the HIV-1 peptides TM-HIV-1 (hereabove referred to as 1a.1) and V3-nm (hereabove referred to as 1b.4), the HIV-2 peptide TM-HIV-2 (hereabove referred to as 2a), and the hepatitis C virus peptides II, IX, and XVIII. Mixture A contained each of the six biotinylated peptides at a concentration of 1 microgram per milliliter (6 micrograms per milliliter peptide, total) while in mixture B, each peptide was present at a concentration of 0.1 microgram per milliliter (0.6 microgram per milliliter peptide, total). The individual peptides were coated at a concentration of 1 microgram per milliliter. For purposes of comparison, mixtures A and B were also coated directly onto the wells of a microtiter plate. Samples from HIV-1, HIV-2, and HCV-seropositive donors were tested and compared to sera from seronegative blood donors. A cut-off absorbance value of 0.250 was used to determine whether a reaction was positive or negative. Absorbance values equal or greater than 0.250 were considered positive while absorbance values below this value were considered negative.
A spacer consisting of two glycine residues was added to the amino terminus.

[2] = test system: antibodies in antisera from HIV-2 infected persons; test: ELISA with HIV-2 antibody-positive sera (biotinylated peptides on streptavidin- or avidin-coated plates, unbiotinylated peptides coated directly)
Description: as §1, §2, §3, §4, §5
The biotinylated peptides were loaded onto microtiter plates which had been coated with streptavidin. Antibody binding to these peptides was compared to antibody binding to the unibiotinylated peptides which were coated directly onto microtiter plates. It is evident that the biotinylated peptides from the HIV-1 or HIV-2 transmembrane proteins bound to streptavidin are recognized very well by antisera from HIV-1 or HIV-2 infected persons respectively. This is in contrast to the unbiotinylated versions of these peptides coated directly onto the polystyrene plates.
as §6
Two glycine residues were added at the N-terminus of each peptide to serve as a spacer and a biotin was coupled to the α-amino group of the resulting N-terminal glycine. The peptides were bound to streptavidin and coated in the wells of microwell plates. HIV-2 antibody-positive sera were used to evaluate these two peptides in an ELISA.

[3] = test system: HIV-1 anti-V3 loop antibodies in sera; test: Line immunoassay (LIA) with HIV-1 gp120 V3 loop peptides; conditions: for recognition of peptide, % of sera: Table 15
Excerpt: In order to determine the general diagnostic value of the V3 loop region of gp120, nine peptides derived from this region of nine different HIV-1 isolates were synthesized and included in a LIA. All nine peptides were provided with a Gly-Gly spacer and an N-terminal biotin. The aligned peptides (one-letter amino acid code) sequences are as follows: (SEQ ID NOs: 154-162, respectively)
The peptides were mixed with streptavidin in a slight molar excess over biotin binding sites and the peptide:streptavidin complexes were separated from unbound material over Sephadex G-25. Material eluting in the void volume was used in the preparation of the LIA.
A total of 332 sera were tested which had been obtained from various geographical regions. […] The reactions of the various lines were evaluated as positive (i) or negative (o) (data not shown).
In total, 307 of the 332 sera gave a reaction to at least one peptide on the V3-loop LIA. […] The total number of positive sera tested was therefore 326. […] There were, however, significant geographical differences.

[4] = Table 8, serum 3990 (HIV-1), Avidin
[5] = Table 8, serum DV (HIV-1), Avidin
[6] = Table 8, serum PL (HIV-1), Avidin
[7] = Table 8, serum YS (HIV-1), Avidin
[8] = Table 8, serum 1400 (HIV-2), Avidin
[9] = Table 8, serum AG (HIV-2), Avidin
[10] = Table 14, HIV-V3 positive sera, 307
[11] = Table 14, gp120 positive sera, COUNT 326

ETWKKPDYEPPVVHGCPLPP
optical density (450 nm) [1, 4]: 0.056 | optical density (450 nm) [1, 5]: 0.047 | optical density (450 nm) [1, 6]: 0.052 | optical density (450 nm) [1, 7]: 0.049 | optical density (450 nm) [2, 8]: 1.362 | optical density (450 nm) [2, 9]: 0.058

PQRKTKRNTNRRPQDVKFPG
optical density (450 nm) [1, 4]: 0.054 | optical density (450 nm) [1, 5]: 0.047 | optical density (450 nm) [1, 6]: 0.052 | optical density (450 nm) [1, 7]: 0.048 | optical density (450 nm) [2, 8]: 0.121 | optical density (450 nm) [2, 9]: 0.081

Bio-Gly-Gly-Gly-Ile-Trp-Gly-Cys-Ser-Gly-Lys-Leu-Ile-Cys-NH2 (Biotin-GGGIWGCSGKLIC-NH2; cysteine pairing not given here) [TM-HIV-1 Bio]
optical density (450 nm) ([1]; Table 1, serum 0724, HIV-1 positive): 2.570 | optical density (450 nm) ([1]; Table 1, serum PL, HIV-1 positive): 1.559 | optical density (450 nm) ([1]; Table 1, serum VE, HIV-1 positive): 2.551 | optical density (450 nm) ([1]; Table 1, serum YEMO, HIV-1 positive): 2.357 | optical density (450 nm) ([1]; Table 1, serum mm, HIV-1 positive): 2.579 | optical density (450 nm) ([1]; Table 6, serum 0369/87, HIV positive): 2.042 | optical density (450 nm) ([1]; Table 6, serum 0724, HIV positive): 2.291 | optical density (450 nm) ([1]; Table 6, serum 1164, HIV positive): 1.919 | optical density (450 nm) ([1]; Table 6, serum 1252, HIV positive): 2.356 | optical density (450 nm) ([1]; Table 6, serum 2049, HIV positive): 2.058 | optical density (450 nm) ([1]; Table 6, serum 3990, HIV positive): 1.870 | optical density (450 nm) ([1]; Table 6, serum 4436, HIV positive): 2.110 | optical density (450 nm) ([1]; Table 6, serum 4438, HIV positive): 1.697 | optical density (450 nm) ([1]; Table 6, serum DV, HIV positive): 1.579 | optical density (450 nm) ([1]; Table 6, serum MM, HIV positive): 2.308 | optical density (450 nm) ([1]; Table 6, serum OOST 6, HIV positive): 2.003 | optical density (450 nm) ([1]; Table 6, serum OOST 7, HIV positive): 2.027 | optical density (450 nm) ([1]; Table 6, serum OOST 8, HIV positive): 2.237 | optical density (450 nm) ([1]; Table 6, serum OOST 9, HIV positive): 2.222 | optical density (450 nm) ([1]; Table 6, serum PL, HIV positive): 1.849 | optical density (450 nm) ([1]; Table 6, serum VCM, HIV positive): 2.263 | optical density (450 nm) ([1]; Table 6, serum VE, HIV positive): 2.240 | optical density (450 nm) [1, 4]: 1.602 | optical density (450 nm) [1, 5]: 1.329 | optical density (450 nm) [1, 6]: 1.974 | optical density (450 nm) [1, 7]: 0.046 | optical density (450 nm) ([2]; Table 1, serum 53-3, HIV-2 positive): 0.000 | optical density (450 nm) ([2]; Table 1, serum 1400, HIV-2 positive): 0.000 | optical density (450 nm) ([2]; Table 1, serum AG, HIV-2 positive): 0.000 | optical density (450 nm) [2, 8]: 0.051 | optical density (450 nm) [2, 9]: 0.054

IIPDREVLYREFDEMEECSQ
optical density (450 nm) [1, 4]: 0.066 | optical density (450 nm) [1, 5]: 0.049 | optical density (450 nm) [1, 6]: 0.056 | optical density (450 nm) [1, 7]: 0.049 | optical density (450 nm) [2, 8]: 0.052 | optical density (450 nm) [2, 9]: 0.064

Bio-Gly-Gly-Tyr-Asn-Lys-Arg-Lys-Arg-Ile-His-Ile-Gly-Pro-Gly-Arg-Ala-Phe-Tyr-Thr-Thr-Lys-Asn-Ile-Ile-Gly-NH2 (Biotin-GGYNKRKRIHIGPGRAFYTTKNIIG-NH2) [V3-mn Bio]
optical density (450 nm) ([1]; Table 2, sample 266): 2.591 | optical density (450 nm), off scale ([1]; Table 2, sample 3990): overflow* (Absorbance value greater than 3.000) | optical density (450 nm) ([1]; Table 2, sample 4436): 2.268 | optical density (450 nm) ([1]; Table 2, sample 4438): 2.554 | optical density (450 nm) ([1]; Table 2, sample DV): 2.881 | optical density (450 nm) ([1]; Table 2, sample MM): 2.542 | optical density (450 nm), off scale ([1]; Table 2, sample OOST 4): overflow* (Absorbance value greater than 3.000) | optical density (450 nm) ([1]; Table 2, sample OOST 6): 2.355 | optical density (450 nm), off scale ([1]; Table 2, sample OOST 8): overflow* (Absorbance value greater than 3.000) | optical density (450 nm) ([1]; Table 2, sample PL): 2.351 | optical density (450 nm), off scale ([1]; Table 2, sample VE): overflow* (Absorbance value greater than 3.000) | optical density (450 nm) ([1]; Table 2, sample YS): 2.784 | optical density (450 nm) ([1]; Table 3, serum 3990, peptide bound to avidin): 1.854 | optical density (450 nm) ([1]; Table 3, serum 3990, peptide bound to streptavidin): 1.391 | optical density (450 nm) ([1]; Table 3, serum 4436, peptide bound to avidin): 1.519 | optical density (450 nm) ([1]; Table 3, serum 4436, peptide bound to streptavidin): 0.596 | optical density (450 nm) ([1]; Table 3, serum DV, peptide bound to avidin): 1.748 | optical density (450 nm) ([1]; Table 3, serum DV, peptide bound to streptavidin): 1.041 | optical density (450 nm) ([1]; Table 3, serum PL, peptide bound to avidin): 0.983 | optical density (450 nm) ([1]; Table 3, serum PL, peptide bound to streptavidin): 0.222 | optical density (450 nm) ([1]; Table 3, serum VE, peptide bound to avidin): 1.908 | optical density (450 nm) ([1]; Table 3, serum VE, peptide bound to streptavidin): 1.526 | optical density (450 nm) ([1]; Table 3, serum YS, peptide bound to avidin): 1.721 | optical density (450 nm) ([1]; Table 3, serum YS, peptide bound to streptavidin): 1.236 | optical density (450 nm) [1, 4]: 2.319 | optical density (450 nm) [1, 5]: 2.340 | optical density (450 nm) [1, 6]: 1.321 | optical density (450 nm) [1, 7]: 2.201 | optical density (450 nm) [2, 8]: 0.055 | optical density (450 nm) [2, 9]: 0.068 | % Reactive [3, 10]: 90% | Total SUM (reactive sera), printed on the line COUNT [3, 10]: 275 | % Reactive [3, 11]: 84% | Total SUM (reactive sera) [3, 11]: 275 | recognition of peptide, % of sera ([3]; AFRICAN sera): 85% | recognition of peptide, % of sera ([3]; BRAZILIAN sera): 78% | recognition of peptide, % of sera ([3]; EUROPEAN sera): 97%

Source: patent US6667387B1, “HCV core peptides” (priority 1992, dated 2003)
